Experimental data taken from the supplement of paper PMC5412046.
Counter-ions that a name gives are not always drawn.

Experiments:
[1] = tested on: SB.mhdgc-1; assay: AC50 for growth inhibition (viability) (log10 M); higher = less potent; settings: SB.mhdgc-1 (hereditary c.1380delA CDH1 gastric cancer)
In short: (§1)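 Hereditary or sporadic patient-derived gastric cancer cells (500 cells in 5 μL medium per 1536 well) received 23 nL compound in DMSO by pintool. Dosing was 11 threefold dilutions starting at a final 46 μM. After 48 h, CellTiter-Glo was added for 30 min at room temperature and luminescence read on a ViewLux. Log half-maximal activity concentration came from a four-parameter fit of DMSO-normalised viability, keeping only high-quality curve classes.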

[2] = tested on: SB.msgc-1; assay: as above; settings: SB.msgc-1 (sporadic gastric cancer)
In short: as §1

| SMILES | AC50 for growth inhibition (log10 M) [1] | AC50 for growth inhibition (log10 M) [2] |
| --- | --- | --- |
| Cc1cc(Nc2ncc3c(n2)N(C)C(=O)N(c2cc(NC(=O)c4cccc(C(F)(F)F)c4)ccc2C)C3)n(C)n1 [Pluripotin] | -5.23 | -6.08 |
| CN[C@H]1CCC2=CC(=C(OC)C(=C2C/3=C/C=C(OC)\C(=O)/C=C13)OC)OC [Demecolcine] | -8.13 | -8.83 |
| CCN(CC)CCOc1ccc(Cc2ccccc2)cc1 [Tesmilifene hydrochloride] | -4.48 | -5.18 |
| CC[S+](=O)([O-])N1CC(CC#N)(n2cc(-c3ncnc4[nH]ccc34)cn2)C1 [Baricitinib] | -4.88 | -4.63 |
| CC(C)C(=O)Nc1ccc([N+](=O)[O-])c(C(F)(F)F)c1 [Flutamide] | -5.83 | -5.63 |
| C[C@@]12OC(=O)[C@@]1(NC(=O)[C@@H]2CCCl)[C@@H](O)[C@H]\3CCC\C=C3 [Marizomib] | -7.68 | -7.48 |
| CC(C)c1ccccc1Cc1cc(C(=O)Nc2ccc([S+](=O)([O-])c3ccccc3C(C)(C)C)cc2)c(O)c(O)c1O [TW-37] | -4.83 | -5.13 |
| CN1CC/C(CC1)=C3\c4ccccc4CC(=O)c2sccc23 [Ketotifen] | -5.53 | -4.78 |
| Cc1c(O)cccc1C(=O)N[C@@H](CSc1ccccc1)[C@H](O)CN1C[C@H]2CCCC[C@H]2C[C@H]1C(=O)NC(C)(C)C [Viracept] | -4.73 | -4.73 |
| C[C@H]1[C@@H](OC(=O)CCC(=O)O)O[C@@H]2O[C@@]3(C)CC[C@H]4[C@H](C)CC[C@@H]1[C@@]24OO3 [Artesunate (AS)] | -5.03 | -5.18 |
| CN(C)CCOc1ccc(/C(=C(/CCCl)c2ccccc2)c2ccccc2)cc1 [Toremifene] | -4.63 | -4.63 |
| C/C=C(/C)C(=O)O[C@H]1C(C)=C2[C@H]([C@@H]1OC(=O)CCCCCCC)[C@@](C)(OC(C)=O)C[C@H](OC(=O)CCC)[C@@]1(O)[C@H]2OC(=O)[C@@]1(C)O [Thapsigargin] | -6.98 | -7.43 |
| CCOC(=O)[C@H](CCc1ccccc1)N[C@@H](C)C(=O)N1[C@H](C(=O)O)C[C@@H]2CCC[C@@H]21 [Ramipril] | -5.18 | -4.73 |
| COc1ccc2c(c1OC)C(=O)O[C@H]2[C@H]1c2c(cc3c(c2OC)OCO3)CCN1C [Noscapine] | -6.78 | -6.63 |
| NC1(Cc2ccc(Cl)cc2)CCN(c2ncnc3[nH]ccc23)CC1 | -4.83 | -4.78 |
| C[C@H]1O[C@H](C[C@H](O)[C@@H]1O)O[C@H]2[C@@H](O)C[C@@H](O[C@@H]2C)O[C@H]3[C@@H](O)C[C@@H](O[C@@H]3C)O[C@H]4CC[C@@]5(C)[C@H](CC[C@@H]6[C@@H]5C[C@@H](O)[C@]7(C)[C@H](CC[C@]67O)C/8=C/C(=O)OC8)C4 [Digoxin] | -6.62 | -6.62 |
| CCOC(=O)C(C#N)C\1C2=CC(=CC=C2O\C(=C1C(=O)OCC)N)Br (stereo not drawn) [HA-14-1] | -4.68 | -4.63 |
| NC/1=N/[C@]2(COC[C@H]2CS1)C3=CC(=CC=C3F)NC(=O)C4=NC=C(F)C=C4 | -5.93 | -5.48 |
| CNC(=O)c1cc(Oc2ccc(NC(=O)Nc3ccc(Cl)c(C(F)(F)F)c3)c(F)c2)ccn1 [Regorafenib] | -4.78 | -4.83 |
| ClC/1=C(NCCN2CCOCC2)/C(=O)C3=C(C=CC=N3)C1=O [DA-3003-1] | -5.58 | -5.18 |
| CNC1CCC(N(Cc2cccc(-c3ccncc3)c2)C(=O)c2sc3c(F)ccc(F)c3c2Cl)CC1 (stereo not drawn) [Hh-Ag1.5] | -4.73 | -4.83 |
| OC[C@H]1O[C@H](C[C@@H]1O)N2/C=C(C(=O)NC2=O)/C(F)(F)F [Trifluridine] | -6.48 | -5.78 |
| CC(=O)NCC(=O)N1[C@@H]2CC[C@H]1c1ccc(Nc3ncc(C(F)(F)F)c(NC4CCC4)n3)cc12 | -5.48 | -5.33 |
| c1ccc2c(CCNc3ccc(Nc4ccncc4)cc3)c[nH]c2c1 [Serdemetan] | -5.63 | -4.73 |
